Entries after “also recorded” stand apart in the source; their conditions may differ.
Assay: Tissue distribution study in rats
Type: in vivo, rat
Experimental: Male SD rats were randomly divided into four groups and received a single oral dose of E3 at 4 mg/kg. Blood and tissue samples (i.e., heart, liver, kidney, spleen, lung, brain, testis, skin, muscle, leg bone, stomach, small intestine, and colon) were collected at 0.5 h, 2 h, 6 h, and 24 h after dosing. Tissues were perfused with cold saline, blotted, weighed, and homogenized (10 vol/wt ice-cold H2O; T10 homogenizer, IKA, Staufen, Germany). The rats’ right shin bone was decalcified in methanol (4 °C, 12 h). Processed samples (−80 °C storage) underwent LC-MS/MS analysis as described.
The analyte E3 and IS were dissolved in DMSO to generate the stock solutions. The working calibration of E3 was gradient-diluted with MeOH/H2O (1:1, v/v). Three microliters of working solutions were spiked with 27 μL of the blank rat plasma to establish the calibration standards. The final concentrations of the standard samples were 1, 2, 5, 10, 50, 250, 500, and 1000 ng/mL. Quality control samples (3/100/800 ng/mL) were prepared using identical protein precipitation protocols. Briefly, 30 μL calibrators and biological matrices were mixed with 450 μL stop solution, vortexed (5 min), and centrifuged (18,000× g, 10 min, 4 °C). Processed supernatants (2 μL injection volume) were subjected to LC-MS/MS analysis.
The analysis was conducted by an Xevo TQ-S Cronos Triple Quadrupole Mass Spectrometer coupled with an ACQUITY UPLC (Waters Corp, Milford, MA, USA). The chromatographic separation was conducted in an ACQUITY UPLC BEH C18 1.7 µm column (Waters, Milford, MA, USA) at 40 °C with a flow rate of 0.4 mL/min. The mobile phases were 0.1% (v/v) formic acid in water (A) and pure ACN (B). […] An electrospray ionization (ESI) source with multiple–reaction monitoring (MRM) in positive–ion mode was employed to quantify the analytes with the transitions of m/z 385.11 > 244.19 and m/z 271.136 > 91.01 for E3 and IS, respectively. The optimized cone voltage is 10 V and 24 V for E3 and IS, respectively. The collision energy is 12 V and 32 V for E3 and IS, respectively. MassLynx v4.2 (Waters Corp, Milford, MA, USA) was used for data acquisition and analysis.

CC(=O)c1ccc(C(=O)Nc2cccc(NS(=O)(=O)c3ccccc3)c2)o1 [Compound E3, 5-acetyl-N-(3-(phenylsulfonamido)phenyl)furan-2-carboxamide]
permeability to the blood–brain barrier (BBB) and blood–testis barrier (BTB) (inferred from tissue distribution): lower permeability; also recorded: low permeability
concentration in kidney relative to other tissues (single oral 4 mg/kg): highest concentration
distribution in the brain, testis (single oral 4 mg/kg): relatively low distribution
time of peak drug concentration in most tissues (single oral 4 mg/kg, post-administration): 2 h

Reference: article PMC12024912, “Druggability Studies of Benzene Sulfonamide Substituted Diarylamide (E3) as a Novel Diuretic” (Biomedicines, 2025)
